{"source": "patent US10603289B2", "about": "“Process for the manufacture of ajoene derivatives” (DANMARKS TEKNISKE UNIVERSITET, priority 2010, dated 2020)", "key": {"[1]": {"test_system": "P. aeruginosa PAO1", "type": "in vivo", "settings": "day three post-infection; E:Z 1:4 (FIG. 8)", "description": "Mice were sacrificed on day one or day three post-infection and the contents of bacteria in the lungs were determined. Open squares indicate bacterial lung content per lung for each individual mouse. The median values are indicated with a filled black square. The statistic significance of difference in clearance was tested by a Mann-Whitney U test (analysis of nonparametric data) and p-values for the difference at day one and day three were 0.9 and 0.002 respectively.\nIn this study ajoene was administered prophylactic and subsequently continued after infection. Injections were given subcutaneous in the peritoneum. We performed three individual in vivo treatment experiments with ajoene in the mouse model of pulmonary infection using the P. aeruginosa PAO1. BALB/c mice were intracheally challenged (at day 0) with alginate beads containing 1.5×10^8 CFU/ml P. aeruginosa. The two groups of mice were either untreated (placebo) or treated with ajoene 25 μg/g mouse once a day. The mice were given two days of prophylactic treatment or placebo prior to bacterial challenge. Treatment was continued for three days. […] When combining the experiments a significant difference on day three was seen (p<0.002) with a 500 fold difference in clearance between the groups (FIG. 7). This is concordant with the results obtained by Bjarnsholt et al (2005) in a similar lung infection model in with raw garlic extract was used as treatment [T. Bjarnsholt et al., Microbiology, 2005, 151, p. 3873-3880].\nThis highlights that a synthesis providing a sufficiently pure “crude” ajoene product is essential in order to avoid the use of HPLC purification, as this step has a detrimental effect on biological activity. […] (E,Z) ajoene having an E:Z ratio of 1:4 was used."}, "[2]": {"test_system": "biofilms of P. aeruginosa PAO1", "assay": "In vitro flow cell biofilm killing, live dead stains and CSLM", "type": "cell-based", "description": "Dead cells are stained with the DNA stain PI (Dark grey/black). The biofilm were visualized with CSLM. C) Implant model treated with ajoene and tobramycin.\n3873-3880]. It was however unknown what was the active ingredient in the garlic extract. Thus. biofilms of P. aeruginosa strain were either grown in the presence or absence of 100 μg/ml ajoene. At day three the biofilms were treated with 10 μg/ml tobramycin for 24 hours. […] 10 μg/ml tobramycin was therefore chosen for the present study."}, "[3]": {"test_system": "wild-type P. aeruginosa", "assay": "Foreign-body (silicone tube implant) infection model", "type": "in vivo, mice", "settings": "CFU per implant 72 hours after insertion", "description": "To examine the effect of a combination treatment with ajoene and tobramycin in vivo we used an foreign-body infection model [L. D. Christensen et al., Microbiology, 2007, 153, p. 2312-2320]. Silicone tube implants with a size of 4 mm (inner diameter 4 mm/outer diameter 6 mm) pre-colonized with wild-type P. aeruginosa, were inserted into the peritoneal cavity of mice. Treatments were injected subcutaneously every 24 hours, where ajoene and tobramycin treatment were initiated two days pre-insertion and 24 hours post-insertion, respectively. 72 hours after insertion the implants were removed from the mice and the number of colony-forming units per implant was determined. […] (E,Z) ajoene having an E:Z ratio of 1:4 was used."}}, "data": [{"smiles": "C=CCSSC=CC[S+]([O-])CC=C", "note": "(centres unmarked) [95-99.5% purity ajoene]", "values": [{"measurement": "clearing the pulmonary infection, by ajoene purity", "setting": "[1]", "result": "effective at clearing the pulmonary infection"}]}, {"smiles": "NC[C@H]1O[C@H](O[C@H]2[C@H](O)[C@@H](O[C@H]3O[C@H](CO)[C@@H](O)[C@H](N)[C@H]3O)[C@H](N)C[C@@H]2N)[C@H](N)C[C@@H]1O", "note": "[tobramycin]", "values": [{"measurement": "extent of killing, comparison of tobramycin concentrations", "setting": "[2]; prior treatment study, 10 μg/ml, 100 μg/ml or 340 μg/ml", "result": "no difference in the extent of killing"}, {"measurement": "killing of the biofilm bacteria, single agent", "setting": "[2]; tobramycin or ajoene only", "result": "no or only minor killing"}, {"measurement": "clearing of implants, single treatment versus placebo group", "setting": "[3]", "result": "significant difference in clearing"}]}, {"smiles": "C=CCSSC=CC[S+]([O-])CC=C", "note": "(centres unmarked) [very high purity ajoene]", "values": [{"measurement": "clearing the pulmonary infection, by ajoene purity", "setting": "[1]", "result": "not effective at clearing the pulmonary infection"}]}]}
